Measurements published in PMC12217544 (Scientific Reports, 2025).
Converted amounts (≈) assume the structure as drawn.

Legend:
in vitro = details: African green monkey, CC50, Vero E6 cells, crystal violet, 3 days
SARS-CoV-2 = details: SARS-CoV-2, Vero E6; ref [76]; cited from earlier work
A549 cells = details: MTT, ref [75]; cited from earlier work
Vero E6 cells = details: MTT assay, ref [76]; cited from earlier work
[1] = tested on: A/Puerto Rico/8/1934 H1N1; details: A/Puerto Rico/8/1934 H1N1, quantitative real-time PCR; ref [75]; cited from earlier work

For `Cc1ccc(C(C)C)c(O)c1` [Thymol], the CC50 (in vitro) is given as 63.3 mg/L (≈ 421 µM), the “viral inhibition percentage (plaque reduction)” value (SARS-CoV-2) is given as 96% and the half-maximal cytotoxic concentration (A549 cells) is given as 49.4 µg/mL. For the same compound, the CC50 (Vero E6 cells) was 617 µM and the “concentration that effectively reduced the viral titer” value [1] was 25 µg/mL.
